Experimental data published in EP3797781A1, “USE OF EC-7072 AND SYNERGIC COMPOSITIONS THEREOF IN TREATMENT OF CHRONIC LYMPHOCYTIC LEUKEMIA” (priority 2019, dated 2021).

Legend:
Assay type in all cases: cell-based, human
[1] = test system: NK cells (CD3^-CD56^+); experiment: NK cell numbers, viability and apoptosis in PBMCs (flow cytometry, DiOC6(3)/PI staining); settings: idelalisib 10 µM, 48 hours; PBMCs from patients with CLL (n = 6 - 8); Figure 4G
Description: (§1) To evaluate absolute cell numbers, an equal volume of PKH26 reference microbeads (Sigma-Aldrich) was added to each sample after staining for immune subset identification. Microbeads (5x10^3) were acquired by flow cytometry and absolute numbers of each immune population within the sample were calculated. Normalized percentage values were calculated considering the control (DMSO)-treated cells as 100%.
(§2) Cell viability and apoptosis were evaluated by double-staining with the mitochondrial inner transmembrane potential (ΔΨm)-sensitive dye DiOC6(3) (3,3'-dihexyloxacarbocyanine iodide; Sigma-Aldrich) and the exclusion dye propidium iodide (PI; Immunostep), allowing identification of apoptotic [DiOC6(3)^low PI^-] and dead [PI^+] cells as per Proc. Natl. Acad. Sci. U.S.A. (2014) 111(8):3020-3025 and Methods Mol. Biol. (2016) 1419:1-16. Briefly, PBMCs were resuspended in culture medium containing 20 nM DiOC6(3) and incubated for 30 minutes at 37 °C. Then, PI (1 µg/mL) was added and cells were further incubated for 10 minutes at room temperature (RT). Cells were analyzed by flow cytometry considering DiOC6(3)^+PI^- cells as viable. In some experiments, apoptosis was evaluated by staining with Annexin V/PI. Thus, PBMCs were incubated in Annexin V binding buffer containing 5 µg/mL Annexin V-FITC (Biolegend) for 15 minutes at RT and PI (1 µg/mL) was subsequently added. Data were normalized to the untreated control as a percentage. Only samples with at least 60% of viable cells (DiOC6(3)^+; Annexin V^-) in the control (DMSO) condition were employed in this study.
(§3) The effect of EC-7072 toward healthy immune subsets, T lymphocytes and natural killer (NK) cells, which are chronically exposed to leukemia cells in the peripheral blood of patients with CLL was assessed by: • (i) incubating PBMCs isolated from patients with CLL (n = 10) following treatment with increasing concentrations of EC-7072 (0 - 400 nM) for 24 hours. Numbers of T cells (CD3^+CD56^-) (Figure 2A) and NK cells (CD3^-CD56^+) (Figure 2B) were evaluated by flow cytometry and normalized to their respective control (DMSO) condition for each individual patient to obtain percentage of relative number of T cells and NK cells, respectively; • (ii) incubating PBMCs isolated from patients with CLL (n = 6 - 10) following treatment with increasing concentrations of EC-7072 (0 - 400 nM) for 24 hours. Viability of immune subsets (leukemia cells, T cells and NK cells) was determined by cytofluorometric assessment of DiOC6(3)/PI staining and normalized to their respective control (DMSO) condition for each individual patient to obtain percentage of viable [DiOC6(3)^+] cells (Figures 2C and 2D); • (iii) incubating PBMCs isolated from patients with CLL (n = 11) following treatment with DMSO or EC-7072 (200 nM) for 24 hours. Numbers of CD4^+ cells (Figure 2E) and CD8^+ T cells (Figure 2F) were evaluated by flow cytometry and normalized to their respective control (DMSO) condition for each individual experiment; • (iv) incubating PBMCs isolated from healthy donors (n = 15) following treatment with EC-7072 (200 nM) for 24 hours. […]

[2] = test system: T cells (CD3^+CD56^-); experiment: T cell numbers, viability and apoptosis in PBMCs (flow cytometry, DiOC6(3)/PI staining); settings: idelalisib 10 µM, 48 hours; PBMCs from patients with CLL (n = 6 - 8); Figure 4G
Description: as §1, §2, §3

[3] = test system: primary fibroblasts from healthy donors; experiment: Cell death of primary fibroblasts by PI staining; settings: 200 nM, 24 hours; n = 4
Description: (§4) Effectiveness of EC-7072 against different B-cell malignancies was assessed by; • (i) incubating primary fibroblasts from healthy donors (n = 4) and HK-2 cells from healthy human adult kidney (n = 3) following treatment with MTA (200 nM) or EC-7072 (200 nM) for 24 hours. Cell death was evaluated by PI staining to obtain the percentages corresponding to the [PI^+] subset (Figure 5A) and the mean percentage of [PI^+] cells (Figure 5B); • (ii) treating MEC-1, GRANTA-519, Z-138, JVM-2, CA-46, Ramos, Raji and U266 cell lines (n = 3) following treatment with EC-7072 (500 nM) followed by incubation for 24 hours. Cell viability was assessed by DiOC6(3)/PI staining and normalized to control (DMSO) condition to obtain mean percentage of viable [DiOC6(3)^+] cells (Figure 5C).

[4] = test system: HK-2 cells; experiment: Cell death of HK-2 cells by PI staining; settings: 200 nM, 24 hours; n = 3
Description: as §4

[5] = test system: primary CLL cells; experiment: Leukemia cell viability and apoptosis by DiOC6(3)/PI staining and flow cytometry; settings: Z-VAD-fmk 0-100 µM pretreatment, then EC-7072 200 nM for 24 hours; n = 6
Description: as §2
The in vitro cytotoxic activity of EC-7072 against primary CLL cells was assessed by: • (i) incubating PBMCs isolated from patients with CLL (n = 13) following treatment with increasing concentrations of EC-7072 (0 - 400 nM) for 24 hours. Numbers of leukemia cells were evaluated by flow cytometry and normalized to their respective control (DMSO) condition for each individual patient to obtain percentage of leukemia cells (Figure 1A); • (ii) incubating PBMCs from patients with CLL (n = 10) with or without EC-7072 (100-400 nM) for 24 hours. Viability of leukemia cells was determined by cytofluorometric assessment of DiOC6(3)/PI staining and normalized to their respective control condition to obtain percentage viability (Figure 1B); • (iii) incubating PBMCs from patients with CLL (n = 10) with increasing concentrations of EC-7072 (0 - 400 nM) for 24 hours. Apoptosis of leukemia cells was determined by DiOC6(3)/PI staining and flow cytometry to obtain the mean percentages of apoptotic [DiOC6(3)^low PI^-] and dead [PI^+] cells (Figure 1C); • (iv) incubating PBMCs from patients with CLL (n = 10) with or without EC-7072 (200 nM) for 12 to 72 hours. Viability of leukemia cells was determined by DiOC6(3)/PI staining and normalized to their respective control condition to obtain percentage viability (Figure 1D); • (v) incubating PBMCs from patients with CLL (n = 24) with MTA (200 nM) or EC-7072 (200 nM) for 24 hours. Leukemia cell death was determined by DiOC6(3)/PI staining and flow cytometry to obtain the mean percentages of apoptotic [DiOC6(3)^low PI^-] and dead [PI^+] cells (Figure 1E); • (vi) incubating PBMCs from patients with CLL (n = 63) or healthy donors (n = 20) with or without EC-7072 (200 nM) for 24 hours. Viability of leukemia cells and healthy B cells was evaluated by DiOC6(3)/PI staining and normalized to their respective control condition to obtain percentage viability (Figure 1F); • (vii) incubating PBMCs from patients with CLL (n = 62) following treatment with EC-7072 (200 nM) for 24 hours and obtaining a cytogenetic profile for each patient. Viability of leukemia cells was evaluated by DiOC6(3)/PI staining and normalized to their respective control (DMSO) condition for each individual patient to obtain the percentage of viable [DiOC6(3)^+] cells (Figure 1G); • (viii) incubating PBMCs from patients with CLL (n = 59) following treatment with EC-7072 (200 nM) for 24 hours and determining mutational status of IgHV for each patient. Viability of leukemia cells was evaluated by DiOC6(3)/PI staining and normalized to their respective control (DMSO) condition for each individual patient to obtain the percentage of viable [DiOC6(3)^+] cells (Figure 1H). […]

[6] = test system: active caspase-3; experiment: Caspase-3 activity assay in leukemia cells (flow cytometry); settings: Z-VAD-fmk 0-100 µM pretreatment, then EC-7072 200 nM for 24 hours; n = 6
Description: Intracellular levels of activated caspase-3 were measured by using CaspGLOW™ Fluorescein Active Caspase-3 Staining Kit (Invitrogen). In brief, EC-7072 (200 nM) or DMSO-treated PBMCs from patients with CLL were incubated with FITC-DEVD-fmk for 30 minutes at 37 °c and fluorescence was next analyzed by flow cytometry in leukemia cells. For some experiments, cells were pretreated for 2 hours with the indicated doses of the broad-spectrum caspase inhibitor Z-VAD-fmk.
The induction of caspase-dependent apoptosis on primary CLL cells by EC-7072 was assessed by: • (i) incubating PBMCs isolated from patients with CLL (n = 6) following treatment with increasing concentrations of EC-7072 (0 - 400 nM) for 24 hours. Apoptosis of leukemia cells was evaluated by cytofluorometric assessment of Annexin V/PI staining to obtain percentages of apoptotic [Annexin V^+ PI^-] and dead [PI^+] cells (Figure 3A); • (ii) incubating PBMCs and T cells isolated from patients with CLL (n = 3) following treatment with EC-7072 (200 nM) for 24 hours. T cell apoptosis was evaluated by cytofluorometric assessment of Annexin V/PI staining to obtain percentages of viable [Annexin V-], apoptotic [Annexin V^+ PI^-] and dead [PI^+] cells (Figure 3B); • (iii) incubating PBMCs isolated from patients with CLL (n = 6) following treatment with EC-7072 (0 - 400 nM) for 24 hours. […]

CC[C@H](Nc1ncnc2[nH]cnc12)c1nc2cccc(F)c2c(=O)n1-c1ccccc1 [Idelalisib, reference compound] was tested, and the “viability of NK cells” value [1] was “negligible effects” and the “viability of T cells” value [2] was “negligible effects”.
COC(C(=O)C(O)C(C)O)C1Cc2cc3cc(OC4CC(OC5CC(O)C(O)C(C)O5)C(O)C(C)O4)c(C)c(O)c3c(O)c2C(=O)C1OC1CC(OC2CC(OC3CC(C)(O)C(O)C(C)O3)C(O)C(C)O2)C(O)C(C)O1 (stereo not drawn) [MTA, Mithramycin A, reference compound] was tested, and the “viability of primary human fibroblasts (PI^+ cells)” value [3] was “high toxicity” and the “viability of HK-2 cells (PI^+ cells)” value [4] was “high toxicity”.
For Z-VAD-fmk [reference compound], the “death of primary CLL cells induced by EC-7072 after Z-VAD-fmk pretreatment” value [5] was “completely abrogated the death” and the “active caspase-3 levels on leukemia cells after Z-VAD-fmk pretreatment” value [6] was “decrease of active caspase-3 levels”.
